Data set [1] relates to esterase from porcine liver. The data set can be described thus: Enzymatic conversion of abiraterone acetate to abiraterone by porcine esterases. Type of data set: in vitro ADME. The settings on record: 80 IU/mL porcine esterases. As for the experimental part:
(§1) The conversion of abiraterone acetate to abiraterone was studied in the abovementioned media using either 80 IU/mL esterase from porcine liver or 0.83 mg/mL porcine pancreatin. A total of 150 µM abiraterone acetate (DMSO stock solution) was added to 2 mL of the media in a 12-well plate and placed in a prewarmed shaking incubator (37 °C, 300 rpm; Thermostar, BMG Labtech, Offenburg, Germany). Samples were obtained in triplicate at predetermined time points and centrifuged immediately (20.817 g, 5 min). When lipids were present, drug concentrations were determined in both total (lipid + micellar) and micellar layer as described above.

The next data set deals with porcine pancreatin. As to the kind of experiment: Enzymatic conversion of abiraterone acetate to abiraterone by porcine pancreatin. Type of data set: in vitro ADME. The settings on record: porcine pancreatin 0.83 mg/mL (same with esterases), 150 μM. As for the experimental part:
as §1

The conditions of data set [2]: 24 h, pH 6.5.
Description: (§2) The apparent solubility (i.e., including both molecules freely dissolved in the aqueous phase and molecules solubilised in colloidal structures and lipid droplets [12]) of abiraterone and abiraterone acetate was determined in the different simulated fed state media (i.e., FeSSIF*, FeSSIF*-FM, FeSSIF*-FMT, FeSSIF*-FMTh, FeSSIF*-Th and FeSSIF*-E) using the shake flask method. Approximately 0.3 mg of compound was added to microcentrifuge tubes containing 0.3 mL of the abovementioned media and placed in a prewarmed shaking incubator (37 °C, 175 rpm; KS 4000 I control incubator from Ika (Staufen, Germany)) for 24 h. To the media containing lipid digestion products, 0.9 mg of compound was added instead of 0.3 mg. All solubility experiments were performed in triplicate. Afterwards, samples were centrifuged to separate the solid phase from the dissolved part (20.817 g, 30 min at 37 °C). […] To determine the solubility in the micellar layer, the top lipid layer was aspirated upon which the supernatant was diluted in MeOH:H2O (50:50 v/v) containing IS (abiraterone-d4 and abiraterone acetate-d4, final concentration 50 nM). To determine the solubility in the total sample, the entire supernatant was transferred into a new microcentrifuge tube and vortexed upon which the supernatant was diluted in MeOH:H2O (50:50 v/v) containing IS to fit the linear range.
For data set [3] the following is noted: PAMPA. In general terms: PAMPA measures passive passage across an artificial lipid membrane.
Description: (§3) To investigate the impact of TG and lipid digestion products (FFA, MG) on the passive permeation of abiraterone, transport experiments were performed in the AMI-system according to Berben et al. [13]. In short, a regenerated cellulose membrane (molecular weight cut-off 2 kDa) was mounted between two plastic rings resulting in a surface area of 4.91 cm^2. Membrane integrity was checked by water leakage. The AMI-system was placed in a six-well plate on a shaking incubator at 37 °C and 300 rpm. A 1:3 ratio was maintained between donor and acceptor volumes by applying 2 mL of TPGS-solution to the acceptor compartment and 665 µL of the donor solution of abiraterone in the media prepared as described above. The initial concentration of abiraterone depended on the medium to ensure donor concentrations below the solubility and sufficient permeation to quantify the permeated amount in the acceptor compartment: 10 μM in FaSSIF, 30 μM in FeSSIF*, FeSSIF*-Th and FeSSIF*-E, and 150 μM in FeSSIF*-FM, FeSSIF*-FMT and FeSSIF*-FMTh. Samples (100 µL) were taken from the acceptor compartment at 15, 30, 45, 60 and 120 min and diluted 1:1 in MeOH:H2O (50:50 v/v) containing IS. Subsequently, the withdrawn volumes were replaced by fresh TPGS-solution.
(§4) The apparent permeability coefficient (Papp) was calculated from the cumulative amount of abiraterone appearing in the acceptor compartment according to Equation (1):(1) Papp=dQ/dt×1/A×Cdonor where dQ/dt is the amount of abiraterone appearing in the acceptor compartment over time, A represents the effective surface area available for transport, and Cdonor is the initial concentration in the donor compartment. Data are represented as mean ± standard deviation (SD).
On the set-up of data set [4]: method as in PMID 25592324. The conditions noted are these: FaSSIF, pH 6.5; cited from earlier work.
The conditions of data set [5]: cited from earlier work.
For data set [6] the following is noted: 1000 mg a day; cited from earlier work.
The nature of a further data set: physchem. The settings on record: 37 °C, Apparent solubility, micellar.
In a further data set the test system is small intestine (ileum). The data set can be described thus: Rat in situ intestinal perfusion with mesenteric blood sampling.
Data set [7] in a line: Apparent solubility, shake flask method in simulated intestinal media. The conditions noted are these: 37 °C, pH 6.5, 37 °C, mean ± SD (n = 3).
Description: as §2
The nature of data set [8]: Passive permeation in the artificial membrane insert system (AMI-system).
Description: as §3, §4
The mark [9] stands for this setting: FeSSIF*-FM, FeSSIF*-FMT and FeSSIF*-FMTh.
Setting [10] is: abiraterone acetate suspension 0.5 mg/mL, 80 IU/mL esterases.

The values below come from PMC9143506, “Investigating the Mechanisms behind the Positive Food Effect of Abiraterone Acetate: In Vitro and Rat In Situ Studies” (Pharmaceutics, 2022).

Converted amounts (≈) assume the structure as drawn. Like-named read-outs stand apart in the source and are kept apart here. A value given as a limit tells only on which side of the number the result lay.

Description for physchem: as §2

Broadly, the Log P is a log measure of how a compound divides between an organic and an aqueous phase. Usually solubility stands for the concentration that dissolves in the medium under given conditions. For the compound `CC(=O)O[C@H]1CC[C@@]2(C)C(=CC[C@@H]3[C@@H]2CC[C@]2(C)C(c4cccnc4)=CC[C@@H]32)C1` [abiraterone acetate], in data set [1] (FaSSIF and FeSSIF*, 150 µM, 37 °C), the “Time to almost full conversion to abiraterone” value is on record as at most 30 min. Also, the “Conversion in media containing lipid degradation products” value in [1] (setting [9]) was “very limited”. The “Degradation in media with undigested TG” value in data set [1] (FeSSIF*-Th and FeSSIF*-E) was “slower degradation”. For the same compound, in the data set with porcine pancreatin, the “Degradation in FeSSIF* compared to FeSSIF*-E” value is reported as “degraded faster”. For the same compound, in data set [2], the “Increase of concentration in the total sample in FeSSIF*-FMTh compared to FeSSIF*-FMT” value is given as 2 fold and the “Increase of solubility in FeSSIF*-FM compared to FeSSIF*” value is 14 fold. For the same compound, the “Permeation across the cellulose membrane” value in [3] is “too low”. For the same compound, the “Apparent solubility, micellar” value in data set [4] was 64.6 (±5.2) ^1 µM. Besides, the “Log P” value in data set [5] is listed as 5.12. In addition, the “Excretion of the oral dose” value in data set [6] is on record as “largely excreted in the faeces”. The solubility at 24 h in “physchem” (pH 6.5, fessif, thermodynamic from solid) worked out at 148 µM. In addition, the solubility at 24 h in “physchem” (pH 6.5, thermodynamic from solid) stood at 2110 µM.

For `C[C@]12CC[C@H](O)CC1=CC[C@@H]1[C@@H]2CC[C@]2(C)C(c3cccnc3)=CC[C@@H]12` [abiraterone], the “Increase of solubility in FeSSIF*-FM compared to FeSSIF*” value in data set [2] was 5 fold. Moreover, the “Apparent solubility, micellar” value in data set [4] is 12.7 (±4.2) ^1 µM. In addition, the “Log P” value in data set [5] (quoted in the discussion of solubility, no reference given) is 3.97. The “Supersaturation in the perfusate” value with small intestine (ileum) (FaSSIF and FeSSIF*, entire course of the experiment) is recorded as “apparent supersaturation”; in the data set with small intestine (ileum) (FeSSIF*-FM, FeSSIF*-FMT, FeSSIF*-FMTh), “No supersaturation was observed”. Besides, the “Absorptive flux in media with lipid digestion products” value in the data set on small intestine (ileum) (FeSSIF*-FM, FeSSIF*-FMT, FeSSIF*-FMTh, abiraterone acetate suspension 0.5 mg/mL, 80 IU/mL esterases) is “comparable to the flux in FaSSIF”. Further, in the data set on small intestine (ileum) (setting [10]), the “Abiraterone AUC0–60min in the perfusate, FeSSIF* compared to FaSSIF” value was “much higher”. Moreover, the “Abiraterone flux towards the mesenteric vein, FeSSIF* compared to FaSSIF” value in the data set on small intestine (ileum) (setting [10]) is reported as “increased”. For the same compound, the “Absorptive flux in FeSSIF*-E and FeSSIF*-Th compared to FaSSIF” value in the data set with small intestine (ileum) (setting [10]) was “increased”. In the data set with small intestine (ileum) (ongoing lipolysis, pancreatin 0.83 mg/mL, abiraterone acetate suspension 0.5 mg/mL), the “Absorptive flux in FeSSIF*-Ed compared to FaSSIF and FeSSIF*-FMT” value was “substantially higher”. Besides, the solubility at 24 h in [7] (FeSSIF*, micellar, pH 6.5, fessif, thermodynamic from solid) is 32.7 µM (≈ 11.4 µg/mL); in [7] (FeSSIF*-E, micellar layer of the supernatant, pH 6.5, thermodynamic from solid, micellar layer), 22 µM (≈ 7.69 µg/mL); in [7] (FeSSIF*-E, total sample (micellar + lipid layer), pH 6.5, thermodynamic from solid, total sample (micellar + lipid layer), FeSSIF*-E), 39 µM; in data set [7] (FeSSIF*-FM, micellar, pH 6.5, thermodynamic from solid) it was 176 µM (≈ 61.5 µg/mL); in [7] (FeSSIF*-FMT, micellar layer of the supernatant, pH 6.5, thermodynamic from solid, micellar layer) it was 161 µM (≈ 56.3 µg/mL); in data set [7] (FeSSIF*-FMT, total sample (micellar + lipid layer), pH 6.5, thermodynamic from solid, total sample (micellar + lipid layer), FeSSIF*-FMT) it was 199 µM. Besides, the solubility at 24 h in [7] (FeSSIF*-FMTh, micellar layer of the supernatant, pH 6.5, thermodynamic from solid, micellar layer) was 158 µM (≈ 55.2 µg/mL); in [7] (FeSSIF*-FMTh, total sample (micellar + lipid layer), pH 6.5, thermodynamic from solid, total sample (micellar + lipid layer), FeSSIF*-FMTh), 221 µM; in [7] (FeSSIF*-Th, micellar layer of the supernatant, pH 6.5, thermodynamic from solid, micellar layer) it was 31 µM (≈ 10.8 µg/mL); in data set [7] (FeSSIF*-Th, total sample (micellar + lipid layer), pH 6.5, thermodynamic from solid, total sample (micellar + lipid layer), FeSSIF*-Th), 50 µM. The “Permeability (Papp) in FaSSIF” value in data set [8] (FaSSIF, 10 μM donor, compared to Papp values of 14 compounds of ref 13) is reported as “low permeability”. In addition, the “Lowering of permeability in FeSSIF* compared to FaSSIF” value in data set [8] (FeSSIF* vs FaSSIF) stood at 2.6 fold. Besides, the “Change of passive permeability with FFA and MG” value in data set [8] (setting [9]) is “significant decrease”. Besides, in data set [8] (FeSSIF*-Th and FeSSIF*-E vs FeSSIF*), the “Effect of addition of TG to FeSSIF* on Papp” value is listed as “did not have an effect”.
